This is an account of results in ChEMBL document CHEMBL4368922 (Bioorg Med Chem Lett, 2019).

Some results are limits rather than exact numbers.

One experiment has as its target T1, Amine oxidase [flavin-containing] A (Homo sapiens, UniProt P21397).
T1 sequence (P21397 whole entry): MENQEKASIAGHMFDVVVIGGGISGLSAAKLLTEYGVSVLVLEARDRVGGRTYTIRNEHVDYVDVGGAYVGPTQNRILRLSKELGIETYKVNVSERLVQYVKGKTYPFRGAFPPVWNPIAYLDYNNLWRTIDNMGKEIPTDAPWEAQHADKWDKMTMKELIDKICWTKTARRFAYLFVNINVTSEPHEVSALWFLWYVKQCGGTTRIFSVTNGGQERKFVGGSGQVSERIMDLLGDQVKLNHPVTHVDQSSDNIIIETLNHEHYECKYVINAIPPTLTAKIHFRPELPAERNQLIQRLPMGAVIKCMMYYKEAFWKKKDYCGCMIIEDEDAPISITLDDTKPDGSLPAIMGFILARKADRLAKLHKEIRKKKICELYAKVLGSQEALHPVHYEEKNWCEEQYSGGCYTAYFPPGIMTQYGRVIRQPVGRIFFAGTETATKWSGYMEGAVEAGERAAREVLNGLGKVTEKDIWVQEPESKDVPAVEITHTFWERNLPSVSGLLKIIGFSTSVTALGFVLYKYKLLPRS
Test: not given
Conditions: not given; call rule not given here
Consider `CC1(C)CN=C(N2CCN(c3ncnc4sc(CC(F)(F)F)cc34)CC2)S1`, for which the IC50 entry is “Not Active”.

The target in a further experiment is T1, Amine oxidase [flavin-containing] A.
Test: not given
Conditions: not given
This is another data set of the same source.
The molecule `FC(F)(F)Cc1cc2c(N[C@H]3CC[C@@H](N[C@@H]4C[C@H]4c4ccccc4)CC3)ncnc2s1` came in with an IC50 of 4.55 µM.

Molecule `Fc1ccc([C@@H]2C[C@H]2NC2CCN(c3ncnc4sc(CC(F)(F)F)cc34)CC2)cc1F` came in with an IC50 of 56.4 µM.

Regarding `Fc1ccc([C@@H]2C[C@H]2N[C@H]2CC[C@H](Nc3ncnc4sc(CC(F)(F)F)cc34)CC2)cc1F`, the IC50 was determined as 47.5 µM.

Regarding `FC(F)(F)Cc1cc2c(N[C@H]3CC[C@H](N[C@@H]4C[C@H]4c4ccccc4)CC3)ncnc2s1`, the IC50 was 65.9 µM.

As for `FC(F)(F)Cc1cc2c(N3CCC(N[C@@H]4C[C@H]4c4ccccc4)CC3)ncnc2s1`, the IC50 stood at 12.5 µM.

`FC(F)(F)Cc1cc2c(N3CCC(N[C@H]4C[C@@H]4c4ccccc4)CC3)ncnc2s1` had an IC50 of 8.27 µM.

Consider `FC(F)(F)Cc1cc2c(N3CCC(CN[C@H]4C[C@@H]4c4ccccc4)CC3)ncnc2s1`, for which the IC50 was determined as 9.19 µM.

The next experiment deals with MV4-11. In words: cells. The note with it: Homo sapiens, MV4-11, 168 h.
Description: Antiproliferative activity against human MV4-11 cells after 168 hrs by MTS assay
With `FC(F)(F)Cc1cc2c(N[C@H]3CC[C@@H](N[C@@H]4C[C@H]4c4ccccc4)CC3)ncnc2s1`, it took 2.49 µM to reach half-maximal inhibition (IC50).

For the molecule `Fc1ccc([C@@H]2C[C@H]2NC2CCN(c3ncnc4sc(CC(F)(F)F)cc34)CC2)cc1F`, the IC50 is more than 100 µM.

Take `Fc1ccc([C@@H]2C[C@H]2N[C@H]2CC[C@H](Nc3ncnc4sc(CC(F)(F)F)cc34)CC2)cc1F`: the IC50 was 2.01 µM.

Take `FC(F)(F)Cc1cc2c(N[C@H]3CC[C@H](N[C@@H]4C[C@H]4c4ccccc4)CC3)ncnc2s1`: the half-inhibitory concentration (IC50) was determined as 0.49 µM.

Molecule `FC(F)(F)Cc1cc2c(N3CCC(N[C@@H]4C[C@H]4c4ccccc4)CC3)ncnc2s1` registered an IC50 of 0.29 µM.

With `FC(F)(F)Cc1cc2c(N3CCC(N[C@H]4C[C@@H]4c4ccccc4)CC3)ncnc2s1`, the IC50 came out at 7.31 µM.

With `FC(F)(F)Cc1cc2c(N3CCC(CN[C@H]4C[C@@H]4c4ccccc4)CC3)ncnc2s1`, the IC50 was 5.97 µM.

The molecule `CC1(C)CN=C(N2CCN(c3ncnc4sc(CC(F)(F)F)cc34)CC2)S1` returned an IC50 of 2.6 µM.

Another experiment concerns the target T2, Amine oxidase [flavin-containing] B (Homo sapiens, UniProt P27338).
T2 sequence (P27338 whole entry): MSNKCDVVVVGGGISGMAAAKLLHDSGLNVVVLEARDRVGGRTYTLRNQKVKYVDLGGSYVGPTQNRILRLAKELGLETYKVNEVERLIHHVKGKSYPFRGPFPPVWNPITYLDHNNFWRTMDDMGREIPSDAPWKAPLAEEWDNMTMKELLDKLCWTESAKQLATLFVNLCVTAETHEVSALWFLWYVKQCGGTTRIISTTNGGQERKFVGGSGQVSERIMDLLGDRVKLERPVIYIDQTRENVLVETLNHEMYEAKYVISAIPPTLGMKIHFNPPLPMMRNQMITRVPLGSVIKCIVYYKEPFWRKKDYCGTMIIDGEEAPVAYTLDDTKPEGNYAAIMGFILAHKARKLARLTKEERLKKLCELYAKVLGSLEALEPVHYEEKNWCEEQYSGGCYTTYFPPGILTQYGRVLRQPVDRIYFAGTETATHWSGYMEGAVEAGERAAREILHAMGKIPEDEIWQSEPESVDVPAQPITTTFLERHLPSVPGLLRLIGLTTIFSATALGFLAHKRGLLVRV
Test: not given
Conditions: not given
For `CC1(C)CN=C(N2CCN(c3ncnc4sc(CC(F)(F)F)cc34)CC2)S1`, the IC50 result is “Not Active”.

The target of the next experiment is T3, Lysine-specific histone demethylase 1A (Homo sapiens, UniProt O60341).
Test: not given
Conditions: not given
With `CC1(C)CN=C(N2CCN(c3ncnc4sc(CC(F)(F)F)cc34)CC2)S1`, the IC50 entry is on record as “Not Active”.

The target of another experiment is Menin/Histone-lysine N-methyltransferase MLL (Homo sapiens, UniProt O00255).
Sequence of Menin/Histone-lysine N-methyltransferase MLL (O00255 whole entry): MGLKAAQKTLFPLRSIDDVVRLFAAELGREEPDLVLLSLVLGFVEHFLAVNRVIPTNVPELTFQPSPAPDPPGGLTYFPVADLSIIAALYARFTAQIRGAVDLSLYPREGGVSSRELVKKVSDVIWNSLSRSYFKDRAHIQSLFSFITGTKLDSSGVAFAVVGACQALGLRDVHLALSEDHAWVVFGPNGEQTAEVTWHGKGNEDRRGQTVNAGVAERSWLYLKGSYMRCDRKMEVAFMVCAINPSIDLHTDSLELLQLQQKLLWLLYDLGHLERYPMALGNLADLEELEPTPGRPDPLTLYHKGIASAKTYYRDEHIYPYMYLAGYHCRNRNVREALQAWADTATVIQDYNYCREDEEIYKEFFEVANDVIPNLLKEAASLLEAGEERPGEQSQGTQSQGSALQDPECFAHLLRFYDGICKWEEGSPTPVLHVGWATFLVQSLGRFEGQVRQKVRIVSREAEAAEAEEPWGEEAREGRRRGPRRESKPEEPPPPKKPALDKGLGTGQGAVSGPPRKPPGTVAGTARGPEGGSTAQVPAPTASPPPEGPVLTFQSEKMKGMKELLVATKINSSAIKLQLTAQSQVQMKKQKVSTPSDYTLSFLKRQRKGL
Sequence of Menin/Histone-lysine N-methyltransferase MLL (Q03164 1-2718 partner limits assumed): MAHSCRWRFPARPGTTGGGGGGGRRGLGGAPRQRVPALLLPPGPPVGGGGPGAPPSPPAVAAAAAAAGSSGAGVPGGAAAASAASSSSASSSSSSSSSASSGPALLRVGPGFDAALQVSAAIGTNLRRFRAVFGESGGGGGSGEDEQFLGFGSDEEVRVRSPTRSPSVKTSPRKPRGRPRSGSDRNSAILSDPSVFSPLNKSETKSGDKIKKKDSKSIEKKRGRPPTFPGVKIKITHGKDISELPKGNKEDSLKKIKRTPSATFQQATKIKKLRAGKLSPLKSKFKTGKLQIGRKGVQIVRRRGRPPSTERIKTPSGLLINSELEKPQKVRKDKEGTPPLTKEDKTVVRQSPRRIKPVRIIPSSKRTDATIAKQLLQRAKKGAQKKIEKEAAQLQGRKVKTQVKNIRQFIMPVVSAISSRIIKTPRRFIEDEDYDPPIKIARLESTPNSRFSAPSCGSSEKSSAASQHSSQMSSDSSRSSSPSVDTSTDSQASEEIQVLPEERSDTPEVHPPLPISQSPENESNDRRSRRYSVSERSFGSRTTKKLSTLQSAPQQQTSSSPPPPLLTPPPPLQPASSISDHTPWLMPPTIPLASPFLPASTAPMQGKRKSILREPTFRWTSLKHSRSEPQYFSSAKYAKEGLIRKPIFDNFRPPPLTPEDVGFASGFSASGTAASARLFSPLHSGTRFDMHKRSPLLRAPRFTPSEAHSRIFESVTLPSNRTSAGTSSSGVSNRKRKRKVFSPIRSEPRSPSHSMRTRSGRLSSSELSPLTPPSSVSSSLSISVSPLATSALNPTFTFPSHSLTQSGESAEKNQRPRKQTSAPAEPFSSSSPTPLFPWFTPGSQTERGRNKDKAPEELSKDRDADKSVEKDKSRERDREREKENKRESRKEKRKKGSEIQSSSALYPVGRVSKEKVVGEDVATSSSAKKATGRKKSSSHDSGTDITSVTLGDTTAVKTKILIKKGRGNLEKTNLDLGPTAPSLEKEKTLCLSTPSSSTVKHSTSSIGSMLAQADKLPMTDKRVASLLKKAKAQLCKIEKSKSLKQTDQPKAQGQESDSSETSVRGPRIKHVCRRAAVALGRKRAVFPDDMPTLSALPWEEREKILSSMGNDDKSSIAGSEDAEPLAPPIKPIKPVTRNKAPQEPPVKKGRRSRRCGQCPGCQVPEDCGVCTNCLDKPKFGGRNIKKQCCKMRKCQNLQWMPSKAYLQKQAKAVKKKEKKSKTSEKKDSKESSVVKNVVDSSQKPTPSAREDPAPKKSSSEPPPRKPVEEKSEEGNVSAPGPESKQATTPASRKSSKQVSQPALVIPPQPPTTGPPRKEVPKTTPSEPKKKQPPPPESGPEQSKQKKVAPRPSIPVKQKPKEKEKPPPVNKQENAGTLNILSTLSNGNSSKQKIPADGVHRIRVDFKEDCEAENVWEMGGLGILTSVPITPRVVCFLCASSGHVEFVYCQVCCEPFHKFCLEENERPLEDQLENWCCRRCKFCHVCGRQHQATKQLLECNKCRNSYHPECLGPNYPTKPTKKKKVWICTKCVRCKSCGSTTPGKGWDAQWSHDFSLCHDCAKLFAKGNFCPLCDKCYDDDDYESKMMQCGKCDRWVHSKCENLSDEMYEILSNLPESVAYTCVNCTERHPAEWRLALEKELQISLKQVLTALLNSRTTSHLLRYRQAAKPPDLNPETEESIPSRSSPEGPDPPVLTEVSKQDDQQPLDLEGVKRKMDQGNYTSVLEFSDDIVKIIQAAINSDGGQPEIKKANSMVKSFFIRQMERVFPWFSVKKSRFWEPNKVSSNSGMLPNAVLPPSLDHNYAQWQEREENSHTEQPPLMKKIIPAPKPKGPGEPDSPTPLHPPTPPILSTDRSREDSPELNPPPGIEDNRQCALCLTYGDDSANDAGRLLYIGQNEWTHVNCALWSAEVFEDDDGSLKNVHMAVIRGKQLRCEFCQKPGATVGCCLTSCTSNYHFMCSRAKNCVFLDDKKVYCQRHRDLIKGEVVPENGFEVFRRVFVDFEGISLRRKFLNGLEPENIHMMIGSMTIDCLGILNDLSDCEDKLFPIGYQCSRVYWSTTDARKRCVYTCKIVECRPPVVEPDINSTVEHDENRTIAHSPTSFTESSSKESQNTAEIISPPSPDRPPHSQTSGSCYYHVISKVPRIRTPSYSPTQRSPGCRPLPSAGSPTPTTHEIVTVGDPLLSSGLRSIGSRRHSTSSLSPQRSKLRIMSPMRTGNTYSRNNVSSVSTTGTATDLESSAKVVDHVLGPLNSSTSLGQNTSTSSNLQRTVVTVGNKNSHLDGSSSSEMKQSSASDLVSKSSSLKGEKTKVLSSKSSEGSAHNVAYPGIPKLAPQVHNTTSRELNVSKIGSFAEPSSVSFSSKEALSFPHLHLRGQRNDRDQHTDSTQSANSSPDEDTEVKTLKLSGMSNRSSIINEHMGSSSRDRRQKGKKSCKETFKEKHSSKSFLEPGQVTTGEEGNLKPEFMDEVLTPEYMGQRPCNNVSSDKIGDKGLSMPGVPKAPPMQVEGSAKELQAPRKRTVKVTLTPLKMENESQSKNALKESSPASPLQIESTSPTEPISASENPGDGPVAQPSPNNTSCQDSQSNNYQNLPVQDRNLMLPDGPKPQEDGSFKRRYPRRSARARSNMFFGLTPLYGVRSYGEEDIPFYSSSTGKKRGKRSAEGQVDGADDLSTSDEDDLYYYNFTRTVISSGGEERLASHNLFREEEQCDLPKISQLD
Sequence of Menin/Histone-lysine N-methyltransferase MLL (Q03164 2719-3969 partner limits assumed): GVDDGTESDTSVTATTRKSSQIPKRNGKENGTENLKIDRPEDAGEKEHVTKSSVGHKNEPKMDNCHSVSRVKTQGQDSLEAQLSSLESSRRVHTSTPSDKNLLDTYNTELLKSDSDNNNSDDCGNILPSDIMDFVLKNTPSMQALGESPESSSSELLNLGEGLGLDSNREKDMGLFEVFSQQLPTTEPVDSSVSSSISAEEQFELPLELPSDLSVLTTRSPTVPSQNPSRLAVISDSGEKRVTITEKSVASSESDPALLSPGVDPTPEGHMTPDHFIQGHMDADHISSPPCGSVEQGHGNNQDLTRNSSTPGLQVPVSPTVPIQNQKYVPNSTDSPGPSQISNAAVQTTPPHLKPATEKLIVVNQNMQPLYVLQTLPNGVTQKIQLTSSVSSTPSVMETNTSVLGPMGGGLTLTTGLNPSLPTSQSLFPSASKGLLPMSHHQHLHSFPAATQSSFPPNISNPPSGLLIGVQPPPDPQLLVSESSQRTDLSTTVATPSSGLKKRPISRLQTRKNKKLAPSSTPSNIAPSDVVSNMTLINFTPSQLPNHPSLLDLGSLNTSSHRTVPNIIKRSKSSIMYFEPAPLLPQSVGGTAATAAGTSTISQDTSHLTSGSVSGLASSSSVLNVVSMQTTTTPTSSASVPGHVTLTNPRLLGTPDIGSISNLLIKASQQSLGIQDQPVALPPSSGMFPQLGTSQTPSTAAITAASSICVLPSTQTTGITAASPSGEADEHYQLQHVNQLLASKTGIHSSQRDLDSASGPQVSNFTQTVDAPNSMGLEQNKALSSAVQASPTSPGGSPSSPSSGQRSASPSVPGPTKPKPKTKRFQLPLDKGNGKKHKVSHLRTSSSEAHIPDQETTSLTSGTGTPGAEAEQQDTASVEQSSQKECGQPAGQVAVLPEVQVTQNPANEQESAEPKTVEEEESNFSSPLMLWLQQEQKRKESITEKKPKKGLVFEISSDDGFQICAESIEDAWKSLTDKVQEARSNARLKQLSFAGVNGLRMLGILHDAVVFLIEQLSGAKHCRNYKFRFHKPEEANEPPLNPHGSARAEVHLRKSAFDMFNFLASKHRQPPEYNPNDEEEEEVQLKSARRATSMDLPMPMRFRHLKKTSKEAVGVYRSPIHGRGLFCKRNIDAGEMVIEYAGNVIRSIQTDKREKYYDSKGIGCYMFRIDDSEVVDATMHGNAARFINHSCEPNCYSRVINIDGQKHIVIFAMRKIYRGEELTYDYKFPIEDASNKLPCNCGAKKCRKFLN
Test: not given
Conditions: not given
`FC(F)(F)Cc1cc2c(N[C@H]3CC[C@@H](N[C@@H]4C[C@H]4c4ccccc4)CC3)ncnc2s1` showed an IC50 of 50.7 µM.

On to `Fc1ccc([C@@H]2C[C@H]2NC2CCN(c3ncnc4sc(CC(F)(F)F)cc34)CC2)cc1F`, for which the IC50 was more than 100 µM.

Molecule `Fc1ccc([C@@H]2C[C@H]2N[C@H]2CC[C@H](Nc3ncnc4sc(CC(F)(F)F)cc34)CC2)cc1F` registered an IC50 of more than 100 µM.

Regarding `FC(F)(F)Cc1cc2c(N[C@H]3CC[C@H](N[C@@H]4C[C@H]4c4ccccc4)CC3)ncnc2s1`, the IC50 was determined as 36.9 µM.

`FC(F)(F)Cc1cc2c(N3CCC(N[C@@H]4C[C@H]4c4ccccc4)CC3)ncnc2s1` came in with an IC50 of 10.2 µM.

With `FC(F)(F)Cc1cc2c(N3CCC(N[C@H]4C[C@@H]4c4ccccc4)CC3)ncnc2s1`, the IC50 was 34.5 µM.

In turn, `FC(F)(F)Cc1cc2c(N3CCC(CN[C@H]4C[C@@H]4c4ccccc4)CC3)ncnc2s1` had an IC50 of more than 100 µM.

In the next experiment the target is T3, Lysine-specific histone demethylase 1A. Kind of experiment: Inhibition of LSD1 in human MV4-11 cells assessed as increase in CD86 mRNA expression at 500 nM by SYBR Green dye-bsed RT-qPCR analysis relative to control. Format: cell-based.
Conditions: not given
`FC(F)(F)Cc1cc2c(N[C@H]3CC[C@H](N[C@@H]4C[C@H]4c4ccccc4)CC3)ncnc2s1`: the fold change (FC) amounted to 16.4.

For `FC(F)(F)Cc1cc2c(N3CCC(N[C@@H]4C[C@H]4c4ccccc4)CC3)ncnc2s1`, the fold change (FC) was found to be 22.3.

Another experiment addresses T2, Amine oxidase [flavin-containing] B.
Test: not given
Conditions: not given
This is another data set of the same source.
Turning to `FC(F)(F)Cc1cc2c(N[C@H]3CC[C@@H](N[C@@H]4C[C@H]4c4ccccc4)CC3)ncnc2s1`, the IC50 stood at 6.05 µM.

Take `Fc1ccc([C@@H]2C[C@H]2NC2CCN(c3ncnc4sc(CC(F)(F)F)cc34)CC2)cc1F`: it took 95.6 µM to reach half-maximal inhibition (IC50).

`Fc1ccc([C@@H]2C[C@H]2N[C@H]2CC[C@H](Nc3ncnc4sc(CC(F)(F)F)cc34)CC2)cc1F` displayed an IC50 of 71.6 µM.

In the case of `FC(F)(F)Cc1cc2c(N[C@H]3CC[C@H](N[C@@H]4C[C@H]4c4ccccc4)CC3)ncnc2s1`, the IC50 is more than 100 µM.

The molecule `FC(F)(F)Cc1cc2c(N3CCC(N[C@@H]4C[C@H]4c4ccccc4)CC3)ncnc2s1` returned an IC50 of 40.3 µM.

For `FC(F)(F)Cc1cc2c(N3CCC(N[C@H]4C[C@@H]4c4ccccc4)CC3)ncnc2s1`, the IC50 was determined as 36.7 µM.

Turning to `FC(F)(F)Cc1cc2c(N3CCC(CN[C@H]4C[C@@H]4c4ccccc4)CC3)ncnc2s1`, the IC50 was found to be 9.63 µM.

A further experiment addresses T3, Lysine-specific histone demethylase 1A.
Test: not given
Conditions: not given
This is another data set of the same source.
`FC(F)(F)Cc1cc2c(N[C@H]3CC[C@@H](N[C@@H]4C[C@H]4c4ccccc4)CC3)ncnc2s1` showed an IC50 of 0.124 µM.

As for `Fc1ccc([C@@H]2C[C@H]2NC2CCN(c3ncnc4sc(CC(F)(F)F)cc34)CC2)cc1F`, the IC50 is 0.241 µM.

As for `Fc1ccc([C@@H]2C[C@H]2N[C@H]2CC[C@H](Nc3ncnc4sc(CC(F)(F)F)cc34)CC2)cc1F`, the IC50 stood at 0.146 µM.

For the molecule `FC(F)(F)Cc1cc2c(N[C@H]3CC[C@H](N[C@@H]4C[C@H]4c4ccccc4)CC3)ncnc2s1`, half-maximal inhibition (IC50) required 0.303 µM.

For the molecule `FC(F)(F)Cc1cc2c(N3CCC(N[C@@H]4C[C@H]4c4ccccc4)CC3)ncnc2s1`, it took 0.211 µM to reach half-maximal inhibition (IC50).

`FC(F)(F)Cc1cc2c(N3CCC(N[C@H]4C[C@@H]4c4ccccc4)CC3)ncnc2s1`: the midpoint of inhibition, the IC50, lay at 0.692 µM.

`FC(F)(F)Cc1cc2c(N3CCC(CN[C@H]4C[C@@H]4c4ccccc4)CC3)ncnc2s1` showed an IC50 of 0.061 µM.
